From patent US20240246946A1, “MODULATORS OF TREX1” (Constellation Pharmaceuticals, Inc., priority 2021, published 2024) come the findings set out here.

Assay [1] addresses T1, hTREX1 (Homo sapiens, UniProt Q9NSU2).
T1 construct: host or cells: HCT116 dual cells
T1 sequence (Q9NSU2 1-314): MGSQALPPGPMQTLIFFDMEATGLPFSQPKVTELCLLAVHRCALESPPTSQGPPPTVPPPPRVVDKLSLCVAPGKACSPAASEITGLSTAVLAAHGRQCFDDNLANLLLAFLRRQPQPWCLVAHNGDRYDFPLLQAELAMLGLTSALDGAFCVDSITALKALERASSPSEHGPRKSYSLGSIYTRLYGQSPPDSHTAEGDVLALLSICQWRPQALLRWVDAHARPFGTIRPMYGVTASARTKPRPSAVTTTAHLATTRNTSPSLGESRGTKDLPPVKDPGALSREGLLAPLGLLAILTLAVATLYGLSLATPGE
The assay can be described thus: hTREX1 HCT116 Cell Assay (HCT116 dual cells, Lucia luciferase reporter of Type I interferon induction). The note with it: TREX1i 4 h before pBR322/BstNI transfection, read after 48 h. Format: cell-based. The method in brief: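 Type I interferon induction read as secreted Lucia luciferase 48 h after transfecting pBR322/BstNI digest (1 ug/mL, 100 ng/well) into HCT116 dual reporter cells. Compound added 4 h before transfection at up to 0.1% DMSO; cells in DMEM/10% FBS/25 mM HEPES at 37 °C.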

Assay [2] deals with T2, human TREX2 (residues M44-A279) (Homo sapiens, UniProt Q9BQ50).
T2 construct: human TREX2 (residues M44-A279, expressed in E. coli); made in house; host or cells: E. coli
T2 sequence (Q9BQ50 44-279 isoform Q9BQ50-1): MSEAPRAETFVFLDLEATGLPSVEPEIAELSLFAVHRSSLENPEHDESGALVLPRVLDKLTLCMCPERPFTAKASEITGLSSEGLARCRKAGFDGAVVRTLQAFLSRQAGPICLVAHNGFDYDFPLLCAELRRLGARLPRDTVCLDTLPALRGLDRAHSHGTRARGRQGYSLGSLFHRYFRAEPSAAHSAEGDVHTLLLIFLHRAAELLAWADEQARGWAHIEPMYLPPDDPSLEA
Nature of the assay: hTREX2 Biochemical Assay (fluorescence, dsDNA substrate degradation). The note with it: biochemical selectivity for hTREX1 vs hTREX2. The method in brief: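 Fluorogenic dsDNA degradation read at 615 nm (570 nm excitation) after EDTA quench. Final 60 nM substrate, 50 pM His-Tev-tagged enzyme, 5 mM MgCl2, pH 7.4, 1.0% DMSO; 4 h compound–enzyme preincubation then 18 h reaction, both 25 °C; 10-point titration.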

The target of assay [3] is T3, full length mouse TREX1 (Mus musculus, UniProt Q91XB0).
T3 construct: N-terminally His-Tev tagged full length mouse TREX1; made in house; host or cells: E. coli
T3 sequence (Q91XB0 1-314): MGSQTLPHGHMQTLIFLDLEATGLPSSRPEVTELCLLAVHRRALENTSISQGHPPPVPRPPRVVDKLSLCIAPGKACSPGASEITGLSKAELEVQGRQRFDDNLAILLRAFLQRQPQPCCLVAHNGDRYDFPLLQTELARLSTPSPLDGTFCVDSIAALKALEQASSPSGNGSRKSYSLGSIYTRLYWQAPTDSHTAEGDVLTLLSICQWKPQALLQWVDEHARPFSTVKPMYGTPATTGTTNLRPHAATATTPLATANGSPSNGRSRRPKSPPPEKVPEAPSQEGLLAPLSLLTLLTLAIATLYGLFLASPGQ
Nature of the assay: mTREX1 Biochemical Assay (fluorescence, dsDNA substrate degradation). The note with it: biochemical, read-out: mTREX1 IC50. The method, boiled down: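 Reaction run 18 h at 25° C. with 60 nM TEX615/quencher-labelled dsDNA and 6 pM mouse TREX1 in Tris buffer (pH 7.4, 5 mM MgCl2, 1.0% DMSO), enzyme having sat 4 h with compound across 10 concentrations. EDTA quench; substrate degradation measured as fluorescence increase.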

Assay [4] deals with T4, full length human TREX1 (Homo sapiens, UniProt Q9NSU2).
T4 construct: N-terminally His-Tev tagged full length human TREX1; made in house; host or cells: E. coli
T4 sequence (Q9NSU2 1-314): T1 sequence (Q9NSU2 1-314)
The assay can be described thus: hTREX1 Biochemical Assay (fluorescence, dsDNA substrate degradation). The note with it: biochemical, read-out: hTREX1 IC50. The method in brief: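 Fluorescence rises as enzyme degrades a quenched TEX615-labelled dsDNA substrate (60 nM) in 50 mM Tris, 150 mM NaCl, 5 mM MgCl2, pH 7.4. Full-length His-Tev-tagged human TREX1, 4 pM, sits with compound 4 hours at 25° C before substrate; reaction 18 hours, stopped with EDTA.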

`CC(c1nc(C(=O)Nc2cnoc2)c(O)c(=O)n1C)C(c1ccccc1C#N)c1c[nH]nc1F` (single isomer, unassigned) [Example 127 D1E2]: the IC50 was greater than 0.1 µM in assay [1], greater than 0.01 µM in assay [3] and 0.001 to 0.01 µM in assay [4]. Besides, the “hTREX1 vs hTREX2 selectivity” value in assay [2] is on record as “B (B = 25 to 50-fold selective for hTREX1)”.
In the case of `CC(c1nc(C(=O)Nc2cnoc2)c(O)c(=O)n1C)C(c1cnn(C2COC2)c1)c1ccccc1C#N` (single isomer, unassigned) [Example 106 D1E1], the IC50 was 0.01 to 0.1 µM in assay [1], 0.001 to 0.01 µM in assay [3] and less than 0.001 µM in assay [4]. In assay [2], the “hTREX1 vs hTREX2 selectivity” value is reported as “B (B = 25 to 50-fold selective for hTREX1)”.
Turning to `CC(c1nc(C(=O)Nc2cnoc2)c(O)c(=O)n1C)C(c1ccccc1C#N)c1ccnn1C` (single isomer, unassigned) [Example 1 D1E1], the concentration for half-maximal inhibition (IC50) in assay [1] fell in the range of 0.01 to 0.1 µM; in assay [3], 0.001 to 0.01 µM; in assay [4], 0.001 to 0.01 µM. Further, the “hTREX1 vs hTREX2 selectivity” value in assay [2] was “A (A = <25 fold selective for hTREX1)”.
As to `CC(c1nc(C(=O)Nc2cnoc2)c(O)c(=O)n1C)C(c1ccccc1Cl)c1nncn1C` (single isomer, unassigned) [Example 152 D1E1], the results for the IC50 in assay [1], in assay [3] and in assay [4] were greater than 0.1 µM, greater than 0.01 µM and greater than 0.01 µM, respectively. Moreover, the “hTREX1 vs hTREX2 selectivity” value in assay [2] is “B (B = 25 to 50-fold selective for hTREX1)”.
As to `Cc1cnc(C)c(C(c2cc(F)ccc2Cl)C(C)c2nc(C(=O)Nc3cnoc3)c(O)c(=O)n2C)n1` (single isomer, unassigned) [Example 121 D1E1], the results for the IC50 in assay [1], in assay [3] and in assay [4] were less than 0.01 µM, 0.001 to 0.01 µM and less than 0.001 µM, respectively. For the same compound, the “hTREX1 vs hTREX2 selectivity” value in assay [2] was “C (C = >50 fold selective for hTREX1)”.
Turning to `CC(c1nc(C(=O)Nc2cnoc2)c(O)c(=O)n1C)C(c1ccccc1Cl)n1nccc1C#N` (single isomer, unassigned) [Example 140 D1E1], the IC50 in assay [1] was 0.01 to 0.1 µM; in assay [3] it was 0.001 to 0.01 µM; in assay [4], less than 0.001 µM. For the same compound, the “hTREX1 vs hTREX2 selectivity” value in assay [2] is “B (B = 25 to 50-fold selective for hTREX1)”.
On to `CC(c1nc(C(=O)Nc2cnoc2)c(O)c(=O)n1C)C(c1cnn(CCN(C)C)c1)c1ccccc1C#N` (single isomer, unassigned) [Example 33 D1E1], for which the IC50 is greater than 0.1 µM in assay [1], 0.001 to 0.01 µM in assay [3] and 0.001 to 0.01 µM in assay [4]. For the same compound, the “hTREX1 vs hTREX2 selectivity” value in assay [2] is “C (C = >50 fold selective for hTREX1)”.
`CC(c1nc(C(=O)Nc2cnoc2)c(O)c(=O)n1C)C(c1cc(F)ccc1Cl)c1cn(C)nc1C#N` (single isomer, unassigned) [Example 89 D1E2]: the IC50 in assay [1] is less than 0.01 µM; in assay [3] it was 0.001 to 0.01 µM; in assay [4], less than 0.001 µM. Further, the “hTREX1 vs hTREX2 selectivity” value in assay [2] is listed as “C (C = >50 fold selective for hTREX1)”.
Consider `CC(c1nc(C(=O)Nc2cnoc2)c(O)c(=O)n1C)C(c1ccccc1Cl)n1nccc1C(N)=O` (single isomer, unassigned) [Example 147 D1E1], for which the figures for the IC50 in assay [1], in assay [3] and in assay [4] were 0.01 to 0.1 µM, greater than 0.01 µM and less than 0.001 µM, respectively. For the same compound, the “hTREX1 vs hTREX2 selectivity” value in assay [2] is on record as “C (C = >50 fold selective for hTREX1)”.
Regarding `CC(c1nc(C(=O)Nc2cnoc2)c(O)c(=O)n1C)C(c1cnn(C)c1)c1ccccc1Cl` (single isomer, unassigned) [Example 77 D2E1], the IC50 in assay [1] was greater than 0.1 µM; in assay [3], greater than 0.01 µM; in assay [4], greater than 0.01 µM. Besides, in assay [2], the “hTREX1 vs hTREX2 selectivity” value was “A (A = <25 fold selective for hTREX1)”.
`Cc1nn(C)c(C)c1C(c1cc(F)ccc1C#N)C(C)c1nc(C(=O)Nc2cnoc2)c(O)c(=O)n1C` (single isomer, unassigned) [Example 109 D1E1]: the IC50 is 0.01 to 0.1 µM in assay [1], 0.001 to 0.01 µM in assay [3] and less than 0.001 µM in assay [4]. For the same compound, in assay [2], the “hTREX1 vs hTREX2 selectivity” value is “B (B = 25 to 50-fold selective for hTREX1)”.
For `CCn1cc(C(c2ccccc2C#N)C(C)c2nc(C(=O)Nc3cnoc3)c(O)c(=O)n2C)c(C)n1` (single isomer, unassigned) [Example 70 D1E1], in that order: less than 0.01 µM, less than 0.001 µM, less than 0.001 µM and “C (C = >50 fold selective for hTREX1)”.
Take `CCn1cc(C(c2ccccc2C#N)C(C)c2nc(C(=O)Nc3cnoc3)c(O)c(=O)n2C)cn1` (single isomer, unassigned) [Example 13 D2E1]: the figures for the IC50 in assay [1], in assay [3] and in assay [4] were greater than 0.1 µM, greater than 0.01 µM and 0.001 to 0.01 µM, respectively. Further, in assay [2], the “hTREX1 vs hTREX2 selectivity” value is on record as “B (B = 25 to 50-fold selective for hTREX1)”.
For `Cc1nn(C)c(C)c1C(c1cc(F)ccc1Cl)C(C)c1nc(C(=O)Nc2cnoc2)c(O)c(=O)n1C` (single isomer, unassigned) [Example 154 D1E1], in that order: greater than 0.1 µM, 0.001 to 0.01 µM, less than 0.001 µM and “B (B = 25 to 50-fold selective for hTREX1)”.
As for `Cc1cnc(C)c(C(c2ccccc2C#N)C(C)c2nc(C(=O)Nc3cnoc3)c(O)c(=O)n2C)n1` (single isomer, unassigned) [Example 82 D1E1], the IC50 in assay [1] is less than 0.01 µM; in assay [3] it was 0.001 to 0.01 µM; in assay [4], less than 0.001 µM. Besides, in assay [2], the “hTREX1 vs hTREX2 selectivity” value is on record as “C (C = >50 fold selective for hTREX1)”.
Take `CC(c1nc(C(=O)Nc2cnoc2)c(O)c(=O)n1C)C(c1cnn(C(C)C)c1)c1ccccc1C#N` (single isomer, unassigned) [Example 105 D2E1]: the IC50 in assay [1] was greater than 0.1 µM; in assay [3], greater than 0.01 µM; in assay [4] it was 0.001 to 0.01 µM. In addition, the “hTREX1 vs hTREX2 selectivity” value in assay [2] is “A (A = <25 fold selective for hTREX1)”.
With `COCCn1ncc(C(c2ccccc2C#N)C(C)c2nc(C(=O)Nc3cnoc3)c(O)c(=O)n2C)c1C` (single isomer, unassigned) [Example 69 D1E1], the IC50 in assay [1] was 0.01 to 0.1 µM; in assay [3], 0.001 to 0.01 µM; in assay [4], 0.001 to 0.01 µM. In addition, the “hTREX1 vs hTREX2 selectivity” value in assay [2] is on record as “B (B = 25 to 50-fold selective for hTREX1)”.
Consider `CC(c1nc(C(=O)Nc2cnoc2)c(O)c(=O)n1C)C(c1ccccc1)c1cccnc1C#N` (single isomer, unassigned) [Example 155 D1E2], for which the figures for the IC50 in assay [1], in assay [3] and in assay [4] were greater than 0.1 µM, 0.001 to 0.01 µM and 0.001 to 0.01 µM, respectively. The “hTREX1 vs hTREX2 selectivity” value in assay [2] was “C (C = >50 fold selective for hTREX1)”.
Turning to `CC(c1nc(C(=O)Nc2cnoc2)c(O)c(=O)n1C)C(c1ccccc1Cl)n1cc2ccccc2n1` (single isomer, unassigned) [Example 141 D1E1], the IC50 was greater than 0.1 µM in assay [1], 0.001 to 0.01 µM in assay [3] and 0.001 to 0.01 µM in assay [4]. Moreover, the “hTREX1 vs hTREX2 selectivity” value in assay [2] is given as “A (A = <25 fold selective for hTREX1)”.
For `Cc1cc(C(c2ccccc2C#N)C(C)c2nc(C(=O)Nc3cnoc3)c(O)c(=O)n2C)ccn1` (single isomer, unassigned) [Example 6 D1E1], the IC50 is less than 0.01 µM in assay [1], less than 0.001 µM in assay [3] and less than 0.001 µM in assay [4]. Further, the “hTREX1 vs hTREX2 selectivity” value in assay [2] is reported as “C (C = >50 fold selective for hTREX1)”.
Consider `CC(C)c1cnn(C(c2ccccc2Cl)C(C)c2nc(C(=O)Nc3cnoc3)c(O)c(=O)n2C)c1` (single isomer, unassigned) [Example 135 D1E1], for which the IC50 was greater than 0.1 µM in assay [1], 0.001 to 0.01 µM in assay [3] and 0.001 to 0.01 µM in assay [4]. For the same compound, the “hTREX1 vs hTREX2 selectivity” value in assay [2] was “B (B = 25 to 50-fold selective for hTREX1)”.
